Experimental findings from ChEMBL document CHEMBL3046580, “Synthesis of Some 2-Aryloxymethyl-1, 3, 4-thiadiazolo[2, 3-b]-quinazolin-4-ones and 2-Aryloxymethyl-5-substituted-1, 3, 4-thiadiazolo[3, 2-a]-s-triazin-7-thiones as Potential Biocides” (1990) are described below.

Holding throughout (type): functional
The test system of experiment [1] is Bipolaris oryzae. The experiment can be described thus: Antifungal activity against Bipolaris oryzae assessed as fungus colony inhibition at 1000 ppm measured after 96 hr by agar dilution method. (In general: Agar dilution tests growth on a series of plates holding different concentrations.)
For experiment [2], the system named is Aspergillus niger. The experiment can be described thus: Antifungal activity against Aspergillus niger assessed as fungus colony inhibition at 10 ppm measured after 96 hr by agar dilution method.
In experiment [3] the test system is Aspergillus niger. As to the kind of experiment: Antifungal activity against Aspergillus niger assessed as fungus colony inhibition at 1000 ppm measured after 96 hr by agar dilution method.
Experiment [4] concerns Bipolaris oryzae. As to the kind of experiment: Antifungal activity against Bipolaris oryzae assessed as fungus colony inhibition at 10 ppm measured after 96 hr by agar dilution method.
The test system of experiment [5] is Bipolaris oryzae. As to the kind of experiment: Antifungal activity against Bipolaris oryzae assessed as fungus colony inhibition at 100 ppm measured after 96 hr by agar dilution method.
Experiment [6] concerns Aspergillus niger. As to the kind of experiment: Antifungal activity against Aspergillus niger assessed as fungus colony inhibition at 100 ppm measured after 96 hr by agar dilution method.
A further experiment deals with Setaria viridis. The experiment can be described thus: Herbicidal activity against Setaria viridis (green foxtail) assessed as killing at 6 kg/ha by post-emergent activity assay.
The next experiment concerns Triticum aestivum. The experiment can be described thus: Herbicidal activity against Triticum aestivum (wheat) assessed as killing at 6 kg/ha by post-emergent activity assay.
In a further experiment the test system is Sorghum halepense. The experiment can be described thus: Herbicidal activity against Sorghum halepense (Johnson grass) assessed as killing at 6 kg/ha by post-emergent activity assay.
For a further experiment, the system named is Abutilon theophrasti. As to the kind of experiment: Herbicidal activity against Abutilon theophrasti (velvetleaf) assessed as killing at 6 kg/ha by post-emergent activity assay.
For another experiment, the system named is Echinochloa crus-galli. The experiment can be described thus: Herbicidal activity against Echinochloa crus-galli (barnyard grass) assessed as killing at 6 kg/ha by post-emergent activity assay.

By inhibition is commonly meant how much of the control response was suppressed. Consider `CC(=O)NC(=S)Nc1nnc(COc2ccc(C)cc2C)s1`, for which the inhibition at 1000 ppm in the experiment with Bipolaris oryzae [1] worked out at 60.2%; with Aspergillus niger [3], 55.2%. Further, the inhibition at 10 ppm with Aspergillus niger [2] is 20.5%; in the experiment with Bipolaris oryzae [4] it was 20.2%. In addition, the results for the inhibition at 100 ppm with Bipolaris oryzae [5] and with Aspergillus niger [6] were 38.4% and 31.4%, respectively.

Consider `O=c1c2ccccc2nc2sc(COc3ccc(Cl)cc3Cl)nn12`, for which the inhibition at 1000 ppm amounted to 54.4% in the experiment on Bipolaris oryzae [1] and 43.1% in the experiment with Aspergillus niger [3]. Besides, the Activity is on record as 30% in the experiment with Setaria viridis; 50% with Triticum aestivum; 60% with Sorghum halepense; 20% in the experiment with Abutilon theophrasti; 80% in the experiment with Echinochloa crus-galli. Besides, the inhibition at 10 ppm in the experiment with Aspergillus niger [2] was 12.6%; in the experiment on Bipolaris oryzae [4] it was 23.4%. Also, the inhibition at 100 ppm with Bipolaris oryzae [5] amounted to 31.8%; in the experiment with Aspergillus niger [6] it was 25%.

Turning to `O=C(COc1ccc(Cl)cc1Cl)NC(=S)Nc1nnc(COc2ccc(Cl)cc2Cl)s1`, the inhibition at 1000 ppm in the experiment on Bipolaris oryzae [1] came out at 54%; in the experiment on Aspergillus niger [3], 46.4%. Also, the inhibition at 10 ppm turned out to be 12.4% in the experiment on Aspergillus niger [2] and 21.9% in the experiment on Bipolaris oryzae [4]. The inhibition at 100 ppm in the experiment with Bipolaris oryzae [5] came to 32%; in the experiment with Aspergillus niger [6], 25.2%.

`COC(=O)Nc1nc2ccccc2[nH]1` [CARBENDAZIM]: the inhibition at 1000 ppm in the experiment on Bipolaris oryzae [1] amounted to 98%; in the experiment on Aspergillus niger [3], 98.8%. Further, the values for the inhibition at 10 ppm in the experiment with Aspergillus niger [2] and in the experiment on Bipolaris oryzae [4] were 78.6% and 78.3%, respectively. In addition, the inhibition at 100 ppm in the experiment with Bipolaris oryzae [5] is 85.2%; with Aspergillus niger [6] it was 84.4%.

Consider `Cc1ccc(OCc2nnc(NC(=S)NC(=O)c3ccc(Cl)cc3)s2)c(C)c1`, for which the inhibition at 1000 ppm in the experiment on Bipolaris oryzae [1] amounted to 55.2%; with Aspergillus niger [3], 50.3%. Also, the inhibition at 10 ppm was found to be 18.4% with Aspergillus niger [2] and 22.8% in the experiment on Bipolaris oryzae [4]. Also, the inhibition at 100 ppm in the experiment with Bipolaris oryzae [5] worked out at 32.4%; in the experiment on Aspergillus niger [6] it was 29%.

`Cc1ccc(OCc2nnc(Nc3ccccc3C(=O)O)s2)cc1C`: the inhibition at 1000 ppm was determined as 57.4% in the experiment on Bipolaris oryzae [1] and 50.2% in the experiment with Aspergillus niger [3]. In addition, the inhibition at 10 ppm turned out to be 19% in the experiment with Aspergillus niger [2] and 25.2% in the experiment on Bipolaris oryzae [4]. Moreover, the figures for the inhibition at 100 ppm with Bipolaris oryzae [5] and in the experiment on Aspergillus niger [6] were 30.4% and 29.1%, respectively.

On to `O=C(COc1ccc(Cl)cc1Cl)NC(=S)Nc1nnc(COc2ccc(Cl)cc2)s1`, for which the inhibition at 1000 ppm came to 57.2% with Bipolaris oryzae [1] and 47% in the experiment with Aspergillus niger [3]. Besides, the inhibition at 10 ppm in the experiment on Aspergillus niger [2] came to 13%; with Bipolaris oryzae [4], 24.2%. For the same compound, the inhibition at 100 ppm was 36.2% in the experiment with Bipolaris oryzae [5] and 25.4% in the experiment on Aspergillus niger [6].

With `O=C(O)c1ccccc1Nc1nnc(COc2ccc(Cl)cc2Cl)s1`, the inhibition at 1000 ppm in the experiment on Bipolaris oryzae [1] was 87.4%; in the experiment on Aspergillus niger [3], 84.8%. Besides, the results for the inhibition at 10 ppm in the experiment with Aspergillus niger [2] and in the experiment on Bipolaris oryzae [4] were 68.5% and 60.8%, respectively. Also, the inhibition at 100 ppm was found to be 75.3% with Bipolaris oryzae [5] and 73% in the experiment on Aspergillus niger [6].

Turning to `S=c1nc(COc2ccc(Cl)cc2Cl)n2nc(COc3ccc(Cl)cc3Cl)sc2n1`, the values for the inhibition at 1000 ppm in the experiment with Bipolaris oryzae [1] and in the experiment with Aspergillus niger [3] were 90.4% and 88.6%, respectively. Moreover, the Activity with Setaria viridis was determined as 100%; with Triticum aestivum it was 20%; in the experiment with Sorghum halepense, 100%; in the experiment with Abutilon theophrasti, 100%; in the experiment with Echinochloa crus-galli, 100%. Further, the inhibition at 10 ppm in the experiment with Aspergillus niger [2] is 64.5%; in the experiment with Bipolaris oryzae [4], 61.4%. Moreover, the inhibition at 100 ppm in the experiment on Bipolaris oryzae [5] stood at 78.6%; in the experiment with Aspergillus niger [6], 74.4%.

As for `Cc1ccc(OCc2nn3c(=O)c4ccccc4nc3s2)cc1C`, the results for the inhibition at 1000 ppm with Bipolaris oryzae [1] and with Aspergillus niger [3] were 50.2% and 42.2%, respectively. In addition, the Activity with Setaria viridis is 50%; in the experiment on Triticum aestivum, 40%; with Sorghum halepense it was 60%; in the experiment on Abutilon theophrasti, 50%; in the experiment on Echinochloa crus-galli it was 50%. Further, the inhibition at 10 ppm in the experiment with Aspergillus niger [2] amounted to 12.8%; with Bipolaris oryzae [4], 21.3%. The figures for the inhibition at 100 ppm in the experiment on Bipolaris oryzae [5] and in the experiment with Aspergillus niger [6] were 38.6% and 24.4%, respectively.

Turning to `O=C(O)c1ccccc1Nc1nnc(COc2ccccc2Cl)s1`, the inhibition at 1000 ppm with Bipolaris oryzae [1] came out at 52.4%; with Aspergillus niger [3], 47.3%. Further, the inhibition at 10 ppm in the experiment on Aspergillus niger [2] amounted to 14%; with Bipolaris oryzae [4], 22.2%. Besides, the inhibition at 100 ppm in the experiment with Bipolaris oryzae [5] was determined as 30.4%; in the experiment with Aspergillus niger [6] it was 25.8%.

For `O=c1c2ccccc2nc2sc(COc3ccccc3Cl)nn12`, the inhibition at 1000 ppm with Bipolaris oryzae [1] is 61.4%; in the experiment on Aspergillus niger [3] it was 51.3%. Moreover, the Activity amounted to 70% with Setaria viridis; 60% in the experiment on Triticum aestivum; 40% in the experiment on Sorghum halepense; 20% in the experiment with Abutilon theophrasti; 20% in the experiment with Echinochloa crus-galli. Besides, the inhibition at 10 ppm in the experiment with Aspergillus niger [2] was 19.2%; with Bipolaris oryzae [4], 30.8%. Also, the inhibition at 100 ppm in the experiment with Bipolaris oryzae [5] worked out at 40.1%; with Aspergillus niger [6], 30.2%.

`S=c1nc(COc2ccc(Cl)cc2Cl)n2nc(COc3ccc(Cl)cc3)sc2n1`: the inhibition at 1000 ppm turned out to be 88.2% with Bipolaris oryzae [1] and 87.2% in the experiment on Aspergillus niger [3]. The Activity amounted to 20% in the experiment on Setaria viridis; 50% in the experiment with Triticum aestivum; 40% in the experiment with Sorghum halepense; 30% in the experiment on Abutilon theophrasti; 30% in the experiment with Echinochloa crus-galli. Further, the inhibition at 10 ppm is 68.4% with Aspergillus niger [2] and 60.6% in the experiment on Bipolaris oryzae [4]. Besides, the results for the inhibition at 100 ppm with Bipolaris oryzae [5] and in the experiment on Aspergillus niger [6] were 75.4% and 74.2%, respectively.

With `Cc1ccc(OCc2nnc(Nc3ccccc3C(=O)O)s2)cc1`, the values for the inhibition at 1000 ppm in the experiment on Bipolaris oryzae [1] and in the experiment with Aspergillus niger [3] were 59.1% and 52.2%, respectively. Moreover, the inhibition at 10 ppm in the experiment with Aspergillus niger [2] was 20.9%; with Bipolaris oryzae [4], 22.2%. Besides, the inhibition at 100 ppm in the experiment on Bipolaris oryzae [5] was 39.1%; in the experiment with Aspergillus niger [6], 31%.

With `Cc1ccc(OCc2nn3c(=O)c4ccccc4nc3s2)cc1`, the inhibition at 1000 ppm was determined as 56.2% in the experiment with Bipolaris oryzae [1] and 46% with Aspergillus niger [3]. Moreover, the Activity was 40% in the experiment on Setaria viridis; 40% with Triticum aestivum; 50% in the experiment with Sorghum halepense; 10% in the experiment on Abutilon theophrasti; 10% in the experiment on Echinochloa crus-galli. The inhibition at 10 ppm with Aspergillus niger [2] came out at 13.7%; in the experiment with Bipolaris oryzae [4], 25.2%. Moreover, the inhibition at 100 ppm is 35% in the experiment on Bipolaris oryzae [5] and 25.4% in the experiment on Aspergillus niger [6].

Consider `Cc1ccc(OCc2nn3c(-c4ccc(Cl)cc4)nc(=S)nc3s2)c(C)c1`, for which the inhibition at 1000 ppm with Bipolaris oryzae [1] is 60%; in the experiment with Aspergillus niger [3], 52.3%. The Activity worked out at 90% with Setaria viridis; 0% in the experiment with Triticum aestivum; 80% in the experiment with Sorghum halepense; 90% in the experiment with Abutilon theophrasti; 90% with Echinochloa crus-galli. Also, the inhibition at 10 ppm is 20.4% in the experiment on Aspergillus niger [2] and 31.2% in the experiment with Bipolaris oryzae [4]. The inhibition at 100 ppm in the experiment with Bipolaris oryzae [5] amounted to 49.1%; with Aspergillus niger [6], 31.4%.

Turning to `Cc1ccc(OCc2nn3c(C)nc(=S)nc3s2)c(C)c1`, the inhibition at 1000 ppm was 59.5% with Bipolaris oryzae [1] and 51.4% with Aspergillus niger [3]. Besides, the Activity with Setaria viridis is reported as 10%; with Triticum aestivum, 50%; in the experiment with Sorghum halepense, 60%; in the experiment on Abutilon theophrasti it was 20%; in the experiment on Echinochloa crus-galli it was 40%. Besides, the inhibition at 10 ppm came out at 18.6% with Aspergillus niger [2] and 27.4% in the experiment on Bipolaris oryzae [4]. Further, the results for the inhibition at 100 ppm with Bipolaris oryzae [5] and with Aspergillus niger [6] were 39.3% and 30%, respectively.
